± gives the standard deviation of the averaged measurements.

Assay in all cases: drug sensitivity score (DSS) (DSS score); higher = more sensitive (stronger growth inhibition); extreme values may be limits of the assay
For experiment [1], the system named is Ba/F3 P210-BCR-ABL1 RUNX1-/mut (mouse). The essentials: (§1)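 Mouse Ba/F3 cells carrying P210-BCR-ABL1, CRISPR/Cas9-edited at runx1 exon 4 or edited-control clones, were screened against a 528-compound library on pre-printed 384-well plates. Each compound ran at five concentrations spanning a 10,000-fold range, with 10,000 cells per well in RPMI with 10% FBS for 72 h at 37 °C and 5% CO2. CellTiter-Glo luminescence was scaled between vehicle and positive-control wells. A drug sensitivity score summarised each dose-response, averaged over two replicates.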

Experiment [2] deals with Ba/F3 P210-BCR-ABL1 RUNX1wt/wt control (mouse). In a few lines:
as §1

For experiment [3], the system named is Ba/F3 P210-BCR-ABL1 RUNX1-/- (mouse). In a few lines: as §1

On to `Cc1sc2c(c1C)C(c1ccc(Cl)cc1)=N[C@@H](CC(=O)Nc1ccc(O)cc1)c1nnc(C)n1-2` [Birabresib], for which the results for the drug sensitivity score in experiment [1], in experiment [2] and in experiment [3] were 24.6 ± 3, 15.2 ± 0.49 and 24.1 ± 1.3, respectively.

As for `O=C(c1ccc(C(=O)N2CCC(N3CCCC3)CC2)c(Nc2ccccc2)c1)N1CCC(N2CCCC2)CC1` [UNC1215], the drug sensitivity score in experiment [1], in experiment [2] and in experiment [3] was 0 throughout.

`CCOC(=O)CCNc1cc(N2CCc3ccccc3CC2)nc(-c2ccccn2)n1` [GSK-J4]: the drug sensitivity score in experiment [1] came to 4.5 ± 3.8; in experiment [2] it was 2.45 ± 0.78; in experiment [3] it was 5.1 ± 4.8.

Take `CC[C@@](C)(Nc1ccnc(-c2c[nH]c3ncccc23)n1)C(=O)NCC(F)(F)F` [Decernotinib]: the drug sensitivity score in experiment [1] worked out at 0; in experiment [2] it was 0.55 ± 0.21; in experiment [3], 0.5 ± 0.28.

For `O=C1NC(=O)[C@@H](c2cn3c4c(cccc24)CCC3)[C@@H]1c1c[nH]c2ccccc12` [Tivantinib], the drug sensitivity score in experiment [1] came out at 5.45 ± 0.071; in experiment [2] it was 3.25 ± 0.071; in experiment [3] it was 5.6 ± 0.57.

On to `Nc1cc(C(F)(F)F)c(-c2cc(N3CCOCC3)nc(N3CCOCC3)n2)cn1` [Buparlisib], for which the values for the drug sensitivity score in experiment [1], in experiment [2] and in experiment [3] were 8.7 ± 2.3, 4.5 ± 0.57 and 8.6 ± 0.42, respectively.

For the compound `CCS(=O)(=O)N1CC(CC#N)(n2cc(-c3ncnc4[nH]ccc34)cn2)C1` [Baricitinib], the drug sensitivity score in experiment [1], in experiment [2] and in experiment [3] was 0 throughout.

`O=C(c1ccc(F)c(F)c1Nc1ccc(I)cc1F)N1CC(O)([C@@H]2CCCCN2)C1` [Cobimetinib]: the drug sensitivity score came to 4.6 ± 1.8 in experiment [1], 0 in experiment [2] and 9.05 ± 0.78 in experiment [3].

For the compound `C[C@H]1C[C@@H](n2c(Nc3ccc(OC(F)(F)F)cc3)nc3cc(CCC(=O)O)ccc32)CC(C)(C)C1`, the drug sensitivity score was determined as 1.4 ± 2 in experiment [1], 0 in experiment [2] and 0.8 ± 1.1 in experiment [3].

On to `Clc1ccccc1C(c1ccccc1)(c1ccccc1)n1cccn1` [TRAM-34], for which the drug sensitivity score in experiment [1], in experiment [2] and in experiment [3] was 0 in each case.

As to `COc1cccc(OCCCN)c1-c1cc(Nc2cnc(C#N)cn2)n[nH]1` [Prexasertib], the values for the drug sensitivity score in experiment [1], in experiment [2] and in experiment [3] were 31.4, 30.4 ± 1.3 and 32.5 ± 2.5, respectively.

In the case of `Cc1nc2cccc(N)c2c(=O)n1C1CCC(=O)NC1=O` (stereo unspecified) [CC122], the drug sensitivity score in experiment [1], in experiment [2] and in experiment [3] was 0 in each case.

In the case of `COC(=O)C[C@](O)(CCCC(C)(C)O)C(=O)O[C@@H]1C(OC)=C[C@]23CCCN2CCc2cc4c(cc2[C@H]13)OCO4` [Omacetaxine], the figures for the drug sensitivity score in experiment [1], in experiment [2] and in experiment [3] were 35.4 ± 3.7, 28.8 ± 0.92 and 33.8 ± 2.5, respectively.

With `S=C(NCc1ccc2c(c1)OCO2)N1CCN(c2ncnc3c2oc2ccccc23)CC1` [Amuvatinib], the figures for the drug sensitivity score in experiment [1], in experiment [2] and in experiment [3] were 8.45 ± 1.9, 14.9 ± 1.1 and 11.3 ± 1.3, respectively.

With `COCC[n+]1c2c(n(Cc3cnccn3)c1C)C(=O)c1ccccc1C2=O` [Sepantronium bromide], the drug sensitivity score was 17.1 ± 1.1 in experiment [1], 6.85 ± 0.49 in experiment [2] and 12.9 ± 1.5 in experiment [3].

`O=C(O)c1ccc2c(c1)nc(Nc1cccc(Cl)c1)c1ccncc12` [Silmitasertib]: the drug sensitivity score stood at 7.25 ± 2 in experiment [1], 4.05 ± 0.21 in experiment [2] and 6.45 ± 0.071 in experiment [3].

Turning to `CN(c1ncccc1CNc1nc(Nc2ccc3c(c2)CC(=O)N3)ncc1C(F)(F)F)S(C)(=O)=O`, the drug sensitivity score in experiment [1] came to 7.25 ± 1.9; in experiment [2], 4.8 ± 0.57; in experiment [3], 5.7 ± 0.28.

The values are drawn from the supplement of paper PMC8024199.
